Source: patent publication US10144706B2 (BRISTOL-MYERS SQUIBB COMPANY, priority 2016, dated 2018)

Molecular target: T1, PD-1/PD-L1 interaction (PD-1-Ig / PD-L1-His) (Homo sapiens, UniProt Q9NZQ7)
T1 construct: hPDL1(18-239)-TVMV-His; TVMV protease site linker (C); made in house; host or cells: HEK293T
Assay: PD-1/PD-L1 Homogenous Time-Resolved Fluorescence (HTRF) binding assay
Settings: IC50 range class; PD-L1-His 10 nM, PD-1-Ig 20 nM; read-out: Range or IC50
In short: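 Human PD-L1-His (10 nM final) was pre-incubated with inhibitor for 15 min, then PD-1-Ig (20 nM final) was added for a further 15 min in dPBS with 0.1% BSA and 0.05% Tween-20. Binding was detected by HTRF using Eu-cryptate anti-Ig (1 nM) and APC anti-His (20 nM).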

T1 sequence (Q9NZQ7 with tags, fused parts or gaps): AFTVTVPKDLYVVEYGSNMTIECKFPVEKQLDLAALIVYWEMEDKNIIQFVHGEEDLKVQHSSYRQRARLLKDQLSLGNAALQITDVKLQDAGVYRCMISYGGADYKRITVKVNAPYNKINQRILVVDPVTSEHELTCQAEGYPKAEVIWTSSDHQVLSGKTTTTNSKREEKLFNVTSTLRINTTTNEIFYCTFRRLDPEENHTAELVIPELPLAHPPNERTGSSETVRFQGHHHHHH

| IC50 | Compound |
| --- | --- |
| 20.1 to 90 nM | Cc1c(COc2cc(OCc3ccc(-n4cccn4)nc3)c(CN(C)[C@H](C(=O)O)[C@@H](C)O)cc2Cl)cccc1-c1cccc(COc2cc(OCc3ccc(-n4cccn4)nc3)c(CN(C)[C@H](C(=O)O)[C@@H](C)O)cc2Cl)c1C [Example 5029, (2S,2′S,3R,3′R)-2,2′-((((((2,2′-dimethyl-[1,1′-biphenyl]-3,3′-diyl)bis(methylene))bis(oxy))bis(2-((6-(1H-pyrazol-1-yl)pyridin-3-yl)methoxy)-5-chloro-4,1-phenylene))bis(methylene))bis(methylazanediyl))bis(3-hydroxybutanoic acid)] |
| 0.04 to 20 nM | COc1cc(OCc2cccc(-c3cccc(COc4cc(OCc5cncc(C#N)c5)c(CN(C)[C@@H](CCO)C(=O)O)cc4Cl)c3C)c2C)c(Cl)cc1CN(C)[C@@H](CCO)C(=O)O [Example 5030, N-(4-((3′-((4-((((S)-1-carboxy-3-hydroxypropyl)(methyl)amino)methyl)-2-chloro-5-((5-cyanopyridin-3-yl)methoxy)phenoxy)methyl)-2,2′-dimethyl-[1,1′-biphenyl]-3-yl)methoxy)-5-chloro-2-methoxybenzyl)-N-methyl-L-homoserine] |
| 0.04 to 20 nM | COc1cc(OCc2cccc(-c3cccc(COc4cc(OCc5cncc(C#N)c5)c(CN(C)CCC(=O)O)cc4Cl)c3C)c2C)c(Cl)cc1CN(C)CCC(=O)O [Example 5031, 3-((4-((3′-((4-(((2-carboxyethyl)(methyl)amino)methyl)-2-chloro-5-((5-cyanopyridin-3-yl)methoxy)phenoxy)methyl)-2,2′-dimethyl-[1,1′-biphenyl]-3-yl)methoxy)-5-chloro-2-methoxybenzyl)(methyl)amino)propanoic acid] |
| 0.04 to 20 nM | COc1cc(OCc2cccc(-c3cccc(COc4cc(OC)c(CNCc5cc[nH]n5)cc4Cl)c3C)c2C)c(Cl)cc1CNCc1cc[nH]n1 [Example 5032, 1,1′-((((2,2′-dimethyl-[1,1′-biphenyl]-3,3′-diyl)bis(methylene))bis(oxy))bis(5-chloro-2-methoxy-4,1-phenylene))bis(N-((1H-pyrazol-3-yl)methyl)methanamine)] |

Further lines, the molecule ahead of its results:

| Compound | IC50 |
| --- | --- |
| Cc1c(COc2cc(OCc3ccc(-n4cccn4)nc3)c(CNC(C)(CO)CO)cc2Cl)cccc1-c1cccc(COc2cc(OCc3ccc(-n4cccn4)nc3)c(CNC(C)(CO)CO)cc2Cl)c1C [Example 5020, 2,2′-((((((2,2′-dimethyl-[1,1′-biphenyl]-3,3′-diyl)bis(methylene))bis(oxy))bis(2-((6-(1H-pyrazol-1-yl)pyridin-3-yl)methoxy)-5-chloro-4,1-phenylene))bis(methylene))bis(azanediyl))bis(2-methylpropane-1,3-diol)] | 0.04 to 20 nM |
| Cc1c(COc2cc(OCc3ccc(-n4cccn4)nc3)c(CN3CCCC[C@H]3C(=O)O)cc2Cl)cccc1-c1cccc(COc2cc(OCc3ccc(-n4cccn4)nc3)c(CN3CCCC[C@H]3C(=O)O)cc2Cl)c1C [Example 5021, (2S,2′S)-1,1′-(((((2,2′-dimethyl-[1,1′-biphenyl]-3,3′-diyl)bis(methylene))bis(oxy))bis(2-((6-(1H-pyrazol-1-yl)pyridin-3-yl)methoxy)-5-chloro-4,1-phenylene))bis(methylene))bis(piperidine-2-carboxylic acid)] | 0.04 to 20 nM |
| Cc1c(COc2cc(OCc3ccc(-n4cccn4)nc3)c(CN[C@@](C)(CO)C(=O)O)cc2Cl)cccc1-c1cccc(COc2cc(OCc3ccc(-n4cccn4)nc3)c(CN[C@@](C)(CO)C(=O)O)cc2Cl)c1C [Example 5022, (2S,2′S)-2,2′-((((((2,2′-dimethyl-[1,1′-biphenyl]-3,3′-diyl)bis(methylene))bis(oxy))bis(2-((6-(1H-pyrazol-1-yl)pyridin-3-yl)methoxy)-5-chloro-4,1-phenylene))bis(methylene))bis(azanediyl))bis(3-hydroxy-2-methylpropanoic acid)] | 0.04 to 20 nM |
| Cc1c(COc2cc(OCc3ccc(-n4cccn4)nc3)c(CN(C)C(C)(CO)CO)cc2Cl)cccc1-c1cccc(COc2cc(OCc3ccc(-n4cccn4)nc3)c(CN(C)C(C)(CO)CO)cc2Cl)c1C [Example 5023, 2,2′-((((((2,2′-dimethyl-[1,1′-biphenyl]-3,3′-diyl)bis(methylene))bis(oxy))bis(2-((6-(1H-pyrazol-1-yl)pyridin-3-yl)methoxy)-5-chloro-4,1-phenylene))bis(methylene))bis(methylazanediyl))bis(2-methylpropane-1,3-diol)] | 20.1 to 90 nM |
| Cc1c(COc2cc(OCc3ccc(-n4cccn4)nc3)c(CN(C)C(C)(C)C(=O)O)cc2Cl)cccc1-c1cccc(COc2cc(OCc3ccc(-n4cccn4)nc3)c(CN(C)C(C)(C)C(=O)O)cc2Cl)c1C [Example 5024, 2,2′-((((((2,2′-dimethyl-[1,1′-biphenyl]-3,3′-diyl)bis(methylene))bis(oxy))bis(2-((6-(1H-pyrazol-1-yl)pyridin-3-yl)methoxy)-5-chloro-4,1-phenylene))bis(methylene))bis(methylazanediyl))bis(2-methylpropanoic acid)] | 0.04 to 20 nM |
| Cc1c(COc2cc(OCc3ccc(-n4cccn4)nc3)c(CN(C)[C@@H](CCO)C(=O)O)cc2Cl)cccc1-c1cccc(COc2cc(OCc3ccc(-n4cccn4)nc3)c(CN(C)[C@@H](CCO)C(=O)O)cc2Cl)c1C [Example 5025, (2S,2′S)-2,2′-((((((2,2′-dimethyl-[1,1′-biphenyl]-3,3′-diyl)bis(methylene))bis(oxy))bis(2-((6-(1H-pyrazol-1-yl)pyridin-3-yl)methoxy)-5-chloro-4,1-phenylene))bis(methylene))bis(methylazanediyl))bis(4-hydroxybutanoic acid)] | 0.04 to 20 nM |
| CCC[C@@H](C(=O)O)N(C)Cc1cc(Cl)c(OCc2cccc(-c3cccc(COc4cc(OCc5ccc(-n6cccn6)nc5)c(CN(C)[C@@H](CCC)C(=O)O)cc4Cl)c3C)c2C)cc1OCc1ccc(-n2cccn2)nc1 [Example 5026, (2S,2′S)-2,2′-((((((2,2′-dimethyl-[1,1′-biphenyl]-3,3′-diyl)bis(methylene))bis(oxy))bis(2-((6-(1H-pyrazol-1-yl)pyridin-3-yl)methoxy)-5-chloro-4,1-phenylene))bis(methylene))bis(methylazanediyl))dipentanoic acid] | 0.04 to 20 nM |
| Cc1c(COc2cc(OCc3ccc(-n4cccn4)nc3)c(CN(C)[C@@](C)(CO)C(=O)O)cc2Cl)cccc1-c1cccc(COc2cc(OCc3ccc(-n4cccn4)nc3)c(CN(C)[C@@](C)(CO)C(=O)O)cc2Cl)c1C [Example 5027, (2S,2′S)-2,2′-((((((2,2′-dimethyl-[1,1′-biphenyl]-3,3′-diyl)bis(methylene))bis(oxy))bis(2-((6-(1H-pyrazol-1-yl)pyridin-3-yl)methoxy)-5-chloro-4,1-phenylene))bis(methylene))bis(methylazanediyl))bis(3-hydroxy-2-methylpropanoic acid)] | 0.04 to 20 nM |
| Cc1c(COc2cc(OCc3ccc(-n4cccn4)nc3)c(CN(C)C(CO)CO)cc2Cl)cccc1-c1cccc(COc2cc(OCc3ccc(-n4cccn4)nc3)c(CN(C)C(CO)CO)cc2Cl)c1C [Example 5028, 2,2′-((((((2,2′-dimethyl-[1,1′-biphenyl]-3,3′-diyl)bis(methylene))bis(oxy))bis(2-((6-(1H-pyrazol-1-yl)pyridin-3-yl)methoxy)-5-chloro-4,1-phenylene))bis(methylene))bis(methylazanediyl))bis(propane-1,3-diol)] | 90.1 to 1000 nM |
